Laboratory results from PMC11555231 (Nature Communications, 2024).
Bridge positions count the residues as written; N and C are the ends. Square brackets hold non-standard residues; d marks the D form. Peptide text beside a SMILES is read from it.

How the values were obtained:
[1] = system: HaLo-GFP-mito HeLa cells; assay: Chloroalkane penetration assay (CAPA); format: in vitro ADME; settings: CAPA, chloroalkane-tagged peptide, 4 h in Opti-MEM, 37 °C, chase HaLo-Tag TMR ligand 5 µM 15 min, flow cytometry; mean ± SEM of three independent experiments
Experimental: Following the addition of chloroacetyl-NHS to the N-terminal amino group, Cys(mmt) was selectively deprotected using 1% TFA, 5% triisopropylsilane in DCM (30 min, RT). Peptides were then cyclised on resin using 2% diisopropylethylamine in DMF overnight. Following cyclisation, Lys(ivDde) was deprotected using 2% hydrazine in DMF. The resin was then washed (3 x DCM, 3 x DMF) before on-resin coupling of chloroalkane carboxylic acid was performed on the lysine side chain using Hexafluorophosphate Azabenzotriazole Tetramethyl Uronium / diisopropylethylamine in DMF for 2 h. Global deprotection and purification were then carried out as described above. Chloroalkane carboxylate was synthesised as previously described.
CAPA assays were performed following the protocol published in ref. [51]. In brief, 40,000 HaLo- GFP-mito HeLa cells were seeded in a 96-well plate. Twenty-four hours later, cells were treated with different concentrations of chloroalkane-tagged peptides (100 µM to 200 nM for PADI4_3 and PADI4_3i and 50 µM to 100 nM for PADI4_11 and PADI4_11i) for 4 h in Opti-MEM. Media containing peptides was then removed, and cells were incubated with Opti-MEM (Gibco) for 15 min. After that time, the wash was removed, and cells were chased with HaLo-Tag TMR ligand (5 µM, Promega) in Opti-MEM for 15 min. The ligand was then removed, and cells were incubated with Opti-MEM for 30 min. Cells were then trypsinised, resuspended in phosphate-buffered saline (PBS) with 0.5% FBS and analysed using a benchtop flow cytometer (MACSQuant® VYB Flow cytometer Milteny Biotec). For each well, 10000 GFP positive single cells were analysed (gating workflow shown in Supplementary Fig. 18), and TMR mean fluorescence was normalised against a positive control (cells treated with HaLo-Tag TMR ligand but no peptide) and a negative control (non-treated cells). Analysis was performed using FlowJo (LCC) software and Prism GraphPad (Dotmatics). Data were presented as the average ± standard error of three independent replicates.

[2] = target: T1, Bio-hPADI4 wt (Homo sapiens, UniProt Q9UM07); assay: Surface plasmon resonance (SPR), single cycle kinetics, peptide binding to immobilised PADI4
T1 construct: PADI4 (residues 1–663); Avi-Tag (biotinylated by BirA); made in house; host or cells: E. coli BL21-DE3 co-expressing BirA
Experimental: Single cycle kinetics analysis by SPR was carried out using a Biacore T200 or S200 and a Biotin CAPture kit, series S (Cytiva). […] 50 mM HEPES (pH 7.5), 150 mM NaCl, 2 mM DTT, 0.05 % Tween-20, 0.1% DMSO and variable CaCl2 (as specified) was used as the running buffer and experiments performed at 25 °C.
Samples were run with 120 s contact time, and variable dissociation time (often 360 s). Data were analysed using the Biacore T200 analysis software; data was fitted to a 1:1 binding model accounting for baseline drift where necessary. Data are presented as the average ± standard deviation of at least two independent replicates.

[3] = system: human neutrophils; assay: Time-lapse imaging and NET quantification (NETosis); format: cell-based; settings: 50 µM peptide, 5 µM Ca-Ionophore, 12 h
Experimental: Peripheral venous blood was isolated from consenting healthy adult volunteers in heparin tubes as previously described. Briefly, blood samples were on Histopaque 1119 (Sigma-Aldrich) and then centrifuged for 20 min at 800 × g. The plasma was collected and centrifuged for a second time for 20 min at 800 × g. The neutrophil layer was collected and washed in Hyclone Hank’s Balanced Salt Solution (HBSS) -Ca, -Mg, -Phenol red (GE Healthcare) supplemented with 10 mM HEPES (Invitrogen) 0.1% FBS and further purified with a discontinuous Percoll (GE Healthcare) gradient consisting of layers with densities of 85, 80, 75, 70 and 65% and centrifuged for 20 min at 800 × g. Neutrophil-enriched layers were then collected and washed, and neutrophil purity was assessed using flow cytometry.
About 5 × 10^4 human neutrophils were seeded in a black 96-well plate (PerkinElmer) in HyClone HBSS +Ca, +Mg, - Phenol red (GE Healthcare) containing 10 mM HEPES (Invitrogen). Cells were pre-incubated with the corresponding peptide for 60 min prior to the start of the experiment. DNA of live cells was stained with 4 µg/mL Hoechst (membrane permeable; Thermo Scientific) and DNA from dead cells with 0.2 µM Sytox-green (membrane impermeable; Invitrogen). Cells were stimulated with 100 nM PMA, 5 µM Ca-Ionophore or 0.1 mg/mL cholesterol crystals at the start of the microscope acquisition. Plates stimulated with cholesterol crystals were centrifuged at 300×g for 5 min at RT immediately prior to microscope acquisition. The cells were imaged on an inverted Nikon wide-field microscope system at 37 °C and CO2 (5%). Four fields of view were acquired per well every 15 mins for 10–15 h using a 40x objective. NETs were differentiated from necrotic cells by the size of the sytox signal using FIJI[86]. […] [85]. Area measurements were distributed into bins of increasing area sizes and plotted as a percentage of the total number of Sytox-green positive (dead) cells.

T1 sequence (Q9UM07 whole entry, the tested form may be a part): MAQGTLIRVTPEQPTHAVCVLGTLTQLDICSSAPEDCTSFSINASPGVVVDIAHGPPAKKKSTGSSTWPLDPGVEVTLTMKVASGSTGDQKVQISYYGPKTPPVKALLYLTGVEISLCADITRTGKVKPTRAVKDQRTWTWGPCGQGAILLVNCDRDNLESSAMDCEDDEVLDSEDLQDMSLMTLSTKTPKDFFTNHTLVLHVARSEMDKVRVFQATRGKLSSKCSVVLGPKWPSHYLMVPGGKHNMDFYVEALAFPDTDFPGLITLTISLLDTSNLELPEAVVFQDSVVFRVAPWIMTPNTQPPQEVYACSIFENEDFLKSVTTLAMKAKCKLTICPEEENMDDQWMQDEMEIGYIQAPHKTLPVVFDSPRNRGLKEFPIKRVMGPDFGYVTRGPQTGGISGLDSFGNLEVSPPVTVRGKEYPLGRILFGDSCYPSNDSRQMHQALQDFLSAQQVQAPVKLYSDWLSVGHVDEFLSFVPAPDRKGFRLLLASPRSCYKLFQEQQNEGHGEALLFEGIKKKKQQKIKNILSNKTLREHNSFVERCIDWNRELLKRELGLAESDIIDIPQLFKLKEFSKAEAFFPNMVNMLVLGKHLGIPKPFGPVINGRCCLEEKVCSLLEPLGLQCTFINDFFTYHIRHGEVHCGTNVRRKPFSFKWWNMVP

`N=C(N)NCCC[C@@H]1NC(=O)[C@H](CC(=O)O)NC(=O)[C@@H](Cc2ccc(O)cc2)NC(=O)CSC[C@@H](C(=O)NCC(N)=O)NC(=O)[C@H](Cc2ccc(O)cc2)NC(=O)[C@H](CCCCN)NC(=O)[C@@H]2CCCN2C(=O)[C@H](Cc2c[nH]cn2)NC(=O)[C@H](CCCNC(=N)N)NC(=O)[C@H](Cc2ccc(O)cc2)NC(=O)[C@H](Cc2c[nH]cn2)NC(=O)[C@H](Cc2c[nH]cn2)NC1=O` [PADI4_3i] ({CH2CO}-[dY]DRHHYRHPKYCG-NH2; thioether N-12) was tested, and the CP50 [1] was 2.0 ± 0.8 µM, the “binding to PADI4 (in words)” value [2] was “did not bind” and the “NETosis induced by calcium ionophore” value [3] was “neither response was affected”.
